Laboratory results as given in US20060111335A1, “Photoactivated anti-viral and anti-cancer agent” (priority 2002, published 2006).
Like-named read-outs stand apart in the source and are kept apart here.

How the values were obtained:
Calf thymus DNA = experiment: Dark association with DNA, UV-Visible titration (Example XI); type: binding; conditions: 50 mM pH 7 I=0.15 sodium phosphate buffer (physiological condition)
Procedure: Preparation of DNA solution. Calf thymus DNA (Sigma) was dissolved in 50 mM, pH 7, I=0.15 sodium phosphate buffer (Physiological condition) and sonicated. The purity of the DNA was checked by monitoring the absorption spectrum and the ratio of the absorbance at 260 to 280 nm. The ratio were within the acceptable purity margin (1.8±0.1). The concentration of the Calf thymus DNA per phosphate was determined spectrophotometrically: ε253=6600 for calf thymus DNA^1. The concentration was 2.13 E-3 M.
The resulting solution was diluted 4 times with phosphate buffer. […] 0, 50 μL, 150 μL, 200 μL, 300 μL, 350 μL and 500 μL of DNA solutions were added, mixed well with a small disposable needle, and spectra were recorded again. The concentration of the species, the apparent absorbance at 337 nm, and the apparent extinction coefficients at 337 nm were determined from the absorptions spectra and tabulated in Table 1.
The apparent binding constant, Kapp was determined from the plot of [DNA]/Δεapp versus [DNA], where Δεapp=εf−εapp and Δε=εf−εb^2, where εb and εf correspond to the extinction coefficient of the DNA-bound form of the OCTBP derivatives and the extinction coefficient of the DNA-unbound OCTBP derivatives, respectively. […] Cb=(εfCtotal−Aobserved)/Δε The concentration of the DNA-unbound OCTBP derivatives (Cf) can be determined by Cf=Ctotal−Cb […]

φX-174 plasmid DNA = experiment: Photonicking of φX-174 plasmid DNA, gel electrophoresis; type: biochemical; conditions: for photonicking of φX-174 plasmid DNA: Example IX, dark and upon exposure to light
Procedure: Photolysis with φX-174 Plasmid DNA. Metal complex solutions (with or without quenchers) were saturated with oxygen or argon prior to irradiation. The solutions were further degassed after being mixed with the plasmid. The final solution concentrations were: DPPZPHEN ([…]), φX-174 plasmid DNA (205 μM in base pairs), superoxide dismutase (25 μg/mL), 2-propanol (0.5 M), mannitol (6.25 mM), histidine (8 mM).
Experiments were conducted as described in Example X to evaluate the amount photonicking that occurred in the dark and upon exposure to light for 37TMBP, 56TMBP, OCTBP, BISNMe2, TMOBP, TIOBP, TPBP, BISTAP and BISDPPZ.

cell membrane = experiment: Cell uptake / passage through the cell membrane
Procedure: OCTBP uptake by KB cells. 11 mg of OCTBP was dissolved in 40 mL of PBS buffer. The solution was vortex stirred for 5 minutes to completely dissolve the solid. The solution was sterile filtered through a 0.2μ nylon syringe filter. The concentration of the solution was determined by measuring the UV absorption at 353 nm (ε353nm=1565 M^−1cm^−1).
Once the cells were 75% confluent media was decanted from the flasks and 8 mL of drug solutions were added to three flasks and 8 mL of PBS buffer solution was added to the control flask. The flasks were incubated at 37° C. for 15, 30 and 45 minutes. Control flask was incubated for 45 minutes. When the flasks were removed, they were washed with 6×10 mL of PBS buffer solution. All the liquid was carefully decanted from the flasks. 1 mL of lysing buffer (1% triton X-100) was added to each of the four flasks. The walls of the flasks were rinsed using disposable pipettes. Once all the contents of the flasks were placed into a 1.5 mL disposable centrifuge tubes (each flask yielded ˜1.2 mL), the tubes were centrifuged at 6000 rpm and at 4° C. for 30 minutes on the Fisher Model 59V high-speed centrifuge. BCA Assay was done to establish the amount of cells in each flask.
Rh content of each flask was determined using an inductively coupled plasma (ICP) instrument (AtomScan16, Thermo Elemental, Franklin, Mass.). From each centrifuge tube 1 mL was pipetted and 370 μL of concentrated HCl was added to form a 10% solution. The samples were heated in a hot water bath at 70° C. for 30 minutes. The samples were centrifuged again and the supernatant liquid was diluted to 8 mL by adding nano-pure water. The samples were analyzed for Rh content by ICP.

[1] = Reversed phase HPLC elution on C8 column as measure of hydrophobicity; type: physicochemical
Procedure: Reversed phase high performance liquid chromatography (RP-HPLC) was carried out on C8 columns. Compounds were tested using 20%, 30% and 45% acetonitrile in 100 mM ammonium acetate at pH 5.4 for elution on a C8 column, with the intention of achieving an elution time of about 15 minutes. It was expected that the more hydrophobic a compound, the higher the acetonitrile content one would need for the eluent.

cells = experiment: Phototoxicity, summary statement of Example XII; type: cell-based
CT DNA = experiment: Dark interaction of DPPZPHEN with CT DNA, UV-Vis absorption titration at 380 nm; type: binding, calf
Procedure: General. The quantity of DNA was determined by the Burton assay (Burton, Biochem. J., 62:315-322 (1956)), and its rhodium content was quantitated using flame atomic absorption spectroscopy (AA). The equilibrium constant for interaction between DPPZPHEN and CT-DNA in the dark was calculated from UV-Vis absorption titration measurements at 380 nm (Wolfe et al., Biochem., 26:6392-6396 (1987); Schemel et al., Biopolymers, 10:465-480 (1971)). Cell viability was determined using the MTT assay (Denizot et al., J. Immunol. Methods, 89:271-277 (1986)). SINV was purified on sucrose gradients as previously described (Owen et al., J. Virol., 70:2757-2763 (1996)). The titer was generally 7-8 log10 pfu/mL at the beginning of each experiment.
Interaction of DPPZPHEN with DNA. […] An intrinsic binding constant of […] 3.4×10^5 M^−1 was calculated using the molar extinction coefficient at the λmax (380 nm) at each titration point.

[2] = Photodestruction (photoaquation) with visible light >500 nm, HPLC analysis; type: physicochemical; conditions: 0.1 mM aqueous, 8 hours under argon
Procedure: Aqueous solutions (3 mL, 0.1 mM) of the Rh complexes were irradiated for 8 hours under argon using a 450 W Hanovia medium pressure mercury lamp filtered through a uranium yellow glass (cut-off<330 nm) and a 1.5 cm 0.5% (w/v) aqueous solution of K2Cr2O7 (0% transmittance≦500 nm). Photodestruction of the metal complexes was followed by HPLC analysis.

[3] = Dark thermal aquation and thermal base hydrolysis; type: physicochemical; conditions: 80° C. with 10% NaOH
Description: A dissociation/addition mechanism is generally accepted as responsible for the substitution chemistry associated with a hexacoordinated Rh(III) ligand field triplet (Weiland et al., Inorg. Chem., 25:4893 (1986)). The dissociation step is due to the promotion of an electron from the t2g orbital to the eg orbital, which leads to significant weakening of the metal ligand bonds. (Hipps et al., Inorg. Chem., 13:1544 (1974)).

DNA = test system: DNA; parameters: association with DNA in the dark: dose or concentration left out as unconfirmed; conditions: cited from earlier work
[4] = test system: HeLa (human cervical carcinoma) cells; conditions: cited from earlier work
[5] = test system: KB (human nasopharingeal carcinoma) cells; conditions: cited from earlier work
Sindbis virus = conditions: cited from earlier work
bacteriophage φ6 = conditions: cited from earlier work
KB cells [6] = conditions: delivered to cells by liposome; cited from earlier work
nucleic acid = conditions: cited from earlier work; for covalent binding to nucleic acid upon irradiation: irradiated with light
[7] = test system: naked infectious DNA from phages S13 and G4; conditions: cited from earlier work
M109 cells = experiment: Phototoxicity to M109 tumor cells, MTT assay; type: cell-based, mouse; conditions: OCTBP, 55 μM (FIG. 10)
Procedure: (§1) Photolysis with Tumor Cells.
Procedures for cell maintenance, cell plating, drug incubation, photolysis and MTT assay are all same as that used for the KB cell lines. A small amount of dark toxicity was observed (about 15%). A considerable amount of killing occurs with light alone after 30 and 40 minutes of irradiation (FIG. 10).

GN4 cells = experiment: Phototoxicity to GN4 tumor cells, MTT assay; type: cell-based, canine
Procedure: as §1
Media was decanted from the flask. […] Trypsin-EDTA was then decanted and the flask was incubated at 37° C. for 8 minutes. […] Released cells were suspended in 5 mL of media and shaken well. […] The remaining cells were discarded.
Cells were plated, incubated with the drug, and photolysis was conducted as for the KB cell lines.

[8] = test system: calf thymus DNA than BSA protein; experiment: In vitro kinetic and thermodynamic studies of affinity, DNA versus protein; type: binding
KB cells [9] = experiment: Phototoxicity to KB tumor cells, MTT assay
Procedure: Photolysis with Tumor Cells. […] At the beginning of an experiment media was removed from all plates and the cells were washed with 1 mL of PBS or Hank's salt solution. Drug solution (2 mL) or buffer solution (2 mL) was added to each dish. […] Cells were incubated, with or without metal complex, for 4 hours. After incubation, the solutions were removed from the dishes and the dishes were washed with 1 mL of PBS or Hank's salt solution. A fresh 1 mL of PBS or Hank's salt solution was added to each dish and these were placed on a turntable that sat on the top part of the photolysis chamber. […] The plates were then incubated for 40-48 hours before a determination of the extent of cell toxicity by MTT assay.
Cells were incubated in 75 cm^2 culture flasks. They were grown in Dulbecco's Modified Eagles Medium (D-MEM) supplemented with 10% heat inactivated fetal bovine serum (FBS), 1% L-glutamine-penicillin-streptomycin and 1% amphotericin-B. When cells were not plated for use in an experiment, they were transferred when they were 75-100% confluent using the following procedure. Media was decanted from the flask. Cells were rinsed 1-2 times with 10 mL of Hank's Balanced salt solution. […] Trypsin-EDTA was then decanted and the cells were released from the wall of the flask by tapping the side of the flask. Released cells were suspended in 5 mL media and 1 mL of this suspension was placed in a new culture flasks containing 20 mL of fresh media. The remaining cells were discarded. A culture flask can be used for 3 transfers.
Usually 16-24 hours before a photolysis experiment, cells were plated in 35×10 mm tissue culture dishes and incubated at 37° C. until the experiment was begun. Cells were about 75-100% confluent in the 75 cm^2 culture flask when plated. After being washed and released from the flask as described above, cells were suspended in 40 mL media and 1.5 mL of suspension was placed in each dish.
The concentration of the solution was 70 μM.
The cell dishes were incubated with drug or Hanks balanced salt solution (1 mL) for 3 hours. After incubation, solutions were decanted from the plates and 1 mL of Hank's Balanced salt solution were placed in each. […] Following photolysis, Hank's Balanced salt solutions were decanted and 1 mL of fresh media was placed in each plate.
Plates were incubated for 65 hours and then analyzed for cell survival by MT assay. 5 mg/mL MTT solution in water was prepared and 100 μL of this solution was added to each plate and the plates were incubated for 1.5 hours. Purple crystals formed from live cells. Media was gently removed from plates using a Pasteur pipette, the purple crystals that remained at the bottom of the dish were dissolved in 6 mL of isopropanol.
Phototoxicity studies with long wavelength light (>400 nm). […]

[10] = cited from earlier work
cell = conditions: cited from earlier work
protein = conditions: cited from earlier work
[11] = 45% acetonitrile in 100 mM ammonium acetate pH 5.4

Structure (SMILES): CN(C)C1=c2ccc3c4c2[N](C=C1)[Rh+]1([Cl])([Cl])([N]4C=CC=3N(C)C)[N]2C=CC(N(C)C)=c3ccc4c(c32)[N]1C=CC=4N(C)C.[Cl-] [BISNMe2, cis-dichlorobis(N,N-dimethylamino)-1,10-phenanthroline} rhodium(III) chloride]
- apparent (intrinsic) binding constant Kapp (Calf thymus DNA): 2.0 E4 M
- photonicking of φX-174 plasmid DNA (φX-174 plasmid DNA): Only TPBP, BISTAP, BISDPPZ and BISDPPHEN complexes were found to photonick
- ability to pass through the cell membrane (cell membrane): able to pass through the cell membrane
- elution time [1, 11]: about 15 minutes
- phototoxicity (cells): are phototoxic

Structure (SMILES): [Cl-].[Cl-].[Cl-].[Rh+3].c1cnc2c(c1)ccc1cccnc12.c1cnc2c(c1)ccc1cccnc12 [BISPHEN, cis-dichlorobis(1,10-phenanathroline) rhodium(III) chloride]
- interaction with CT DNA in the dark (CT DNA): negligible interaction
- frank nicks / nicking of φX-174 supercoiled plasmid DNA upon irradiation (φX-174 plasmid DNA; 311 nm irradiation, Example VIII): does not generate such frank nicks
- ability to pass through the cell membrane (cell membrane): Neither of these compounds is able to pass through a cell membrane
- elution time ([1]; 20% acetonitrile in 100 mM ammonium acetate pH 5.4): about 15 minutes
- photodestruction [2]: virtually unaffected
- thermal hydrolysis, rank order [3]: OCTBP≅37TMBP>BISPHEN
- dark association with DNA (DNA; dark): minimal dark association
- association with DNA in the dark (DNA; very low ionic strength): only a minimal association
- uptake by cells [4]: not taken up
- uptake by cells [5]: not taken up
- phototoxicity / virucidal activity against Sindbis virus (Sindbis virus): minimal phototoxicity
- activity against bacteriophage φ6 (bacteriophage φ6): did not exhibit any activity
- phototoxicity against KB cells (KB cells [6]): marginal levels of phototoxicity
- covalent binding to nucleic acid upon irradiation (nucleic acid): covalently binds to nucleic acid
- phototoxicity to single stranded and double stranded naked infectious DNA [7]: phototoxic

Structure (SMILES): CC1=C[N]2c3c4c(ccc3=C1C)=C(C)C(C)=C[N]4[Rh+]21([Cl])([Cl])[N]2C=C(C)C(C)=c3ccc4c(c32)[N]1C=C(C)C=4C.[Cl-] [OCTBP, cis-dichlorobis(3,4,7,8-tetramethyl-1,10-phenanthroline) rhodium(III) chloride]
- apparent (intrinsic) binding constant Kapp (Calf thymus DNA): 4.25 E3 M
- photonicking of φX-174 plasmid DNA (φX-174 plasmid DNA): Only TPBP, BISTAP, BISDPPZ and BISDPPHEN complexes were found to photonick
- dark toxicity (M109 cells): about 15%
- photo-cell death (GN4 cells; OCTBP 55 μM, 311 nm): no photo-cell death occurred
- cell death (GN4 cells; OCTBP 63 μM, >400 nm light, 60 minutes): 25%
- photo-initiated cell death (GN4 cells; OCTBP 75 μM, 311 nm, 40 minutes): about 20%
- ability to pass through the cell membrane (cell membrane): able to pass through the cell membrane
- elution time [1, 11]: about 15 minutes
- photodestruction [2]: 9.3 % loss
- thermal hydrolysis, rank order [3]: OCTBP≅37TMBP>BISPHEN
- affinity toward calf thymus DNA compared with BSA protein [8]: greater affinity toward calf thymus DNA than BSA protein
- phototoxicity (cells): are phototoxic
- cell death (KB cells [9]; OCTBP 55 μM, >400 nm light, 60 minutes): 40%
- dark toxicity (KB cells [9]; OCTBP 70 μM): dark toxicity wasn't observed
- dark toxicity (KB cells [9]; OCTBP 80 μM): considerable amount of dark toxicity

Structure (SMILES): [Cl-].[Cl][Rh+]12([Cl])([N]=c3c(c4ccccc4c4ccccc34)=[N]1)[N]1C=CC=c3ccc4c(c31)[N]2C=CC=4 [PHENPHI, cis-dichloro(1,10-phenanthroline)(9,10-phenathrenequinone diimine)rhodium(III) chloride]
- Keq of dark association with DNA (DNA; dark): 37000 M⁻¹
- phototoxicity / virucidal activity against Sindbis virus (Sindbis virus): potent virucidal activity
- activity against bacteriophage φ6 (bacteriophage φ6): potent virucidal activity
- stability ([10]; 37° C., phosphate-buffered saline (PBS) pH 7): decomposing
- ligand exchange ([10]; acetate buffer pH 5): readily substitutes acetate for chloride ligand
- stability ([10]; room temperature, Tris buffer pH 7): decomposing
- photonuclease activity (nucleic acid): exhibited photonuclease activity
- covalent binding to nucleic acid upon irradiation (nucleic acid): covalently binds to DNA
- photoinduced cell death (cell): substantial photoinduced cell death
- penetration of the cell membrane (cell; without liposomes): does not require liposomes to penetrate the cell membrane
- binding affinity for protein (protein): substantial binding affinity for protein
